According to patent US20240335444A1, “MODULATORS OF BCL6 PROTEOLYSIS AND ASSOCIATED METHODS OF USE” (Arvinas Operations, Inc., priority 2023, published 2024):

Key:
[1] = Body weight of mice in the PDX models; format: in vivo, NOD/SCID or BALB/c Nude Mice; conditions: 30 mg/kg PO QD×21
Procedure: (§1) HuPrime® Lymphoma Xenograft Models in NOD/SCID or BALB/c Nude Mice, 4/group, were dosed orally (per os, PO) daily for 21 days (QD×21) and tumor measurements were acquired twice per week. […] Data points represent the mean per group and error bars the standard error of the mean.

BCL6 protein [2] = target: T1, BCL6 protein (Homo sapiens, UniProt P41182); assay: Tumor lysate BCL6 protein levels in SU-DHL-2 xenograft (western blotting); format: in vivo, mice; parameters: from tissue; host or cells: subcutaneous xenograft tumors of OCI-Ly1, OCI-Ly7, SU-DHL-2 or OCI-Ly10 cells in mice; conditions: 16-hours post-last dose
Procedure: (§2) Mice bearing subcutaneous tumors were orally (po) administered vehicle or Compound A at 3, 10, or 30 mg/kg bi-daily for 27 days (bid×27) or 30 mg/kg daily for 27 days (qd×27). Dosing began with tumors at an average of 180 mm^3. […] FIG. 9C depicts tumor lysate BCL6 protein levels 16-hours post-last dose analyzed by western blotting. Individual tumor BCL6 levels are shown in a scatter plot, mean is represented by the bar, determined by densitometry, normalized to GAPDH loading controls, and shown as a percentage of vehicle. Percent BCL6 degradation (%) relative to vehicle is shown above each arm. Statistical analyses were performed using 2-way ANOVA: p<0.0001 (****). Error bars represent standard error of the mean (±SEM).

BCL6 protein [3] = target: T1, BCL6 protein; assay: Tumor lysate BCL6 protein levels in OCI-Ly7 xenograft (western blotting); format: in vivo, mice; parameters: from tissue; host or cells: subcutaneous xenograft tumors of OCI-Ly1, OCI-Ly7, SU-DHL-2 or OCI-Ly10 cells in mice; conditions: 16-hours post-last dose (FIG. 8C)
Procedure: (§3) Mice bearing subcutaneous tumors were orally (po) administered vehicle or Compound A at 1, 3, 10, or 30 mg/kg daily for 13 days (qd×13). Dosing began with tumors at an average of 130 mm^3. […] FIG. 8C depicts tumor lysate BCL6 protein levels 16-hours post-last dose analyzed by western blotting. Individual tumor BCL6 levels are shown in a scatter plot, mean is represented by the bar, determined by densitometry, normalized to GAPDH loading controls, and shown as a percentage of vehicle. Percent BCL6 degradation (%) relative to vehicle is shown above each arm. Statistical analyses were performed using 2-way ANOVA: p<0.0001 (****). Error bars represent standard error of the mean (±SEM).

SU-DHL-2 = assay: Tumor growth of DLBCL cell line derived xenograft model SU-DHL-2; format: in vivo, mice; conditions: SU-DHL-2 xenograft, po 3, 10 or 30 mg/kg bid×27 or 30 mg/kg qd×27; dosing dependent
Procedure: as §2

LY2214 = assay: PDX model of DLBCL, high-grade B-cell lymphoma (HGBCL, LY2214); format: in vivo, NOD/SCID or BALB/c Nude Mice; conditions: 30 mg/kg PO QD×21, compared to vehicle
Procedure: as §1

OCI-Ly7 = assay: Tumor growth of DLBCL cell line derived xenograft model OCI-Ly7; format: in vivo, mice; conditions: po 1, 3, 10 or 30 mg/kg daily for 13 days (qd×13), dosing dependent
Procedure: as §3

LY12962 = assay: PDX model of NHL NOS (LY12962); format: in vivo, NOD/SCID or BALB/c Nude Mice; conditions: 30 mg/kg PO QD×21
Procedure: as §1

CNC(=O)COc1cc2cc(Nc3nc(N4CCC(O[C@H]5C[C@H](N6CCC(c7ccc8c(c7F)CN(C7CCC(=O)NC7=O)C8=O)CC6)C5)CC4)ncc3Cl)ccc2n(C(C)C)c1=O (stereo partly shown) [Compound A, 2-({6-[(5-chloro-2-{4-[(1r,3r)-3-{4-[2-(2,6-dioxopiperidin-3-yl)-4-fluoro-1-oxo-2,3-dihydro-1H-isoindol-5-yl]piperidin-1-yl}cyclobutoxy]piperidin-1-yl}pyrimidin-4-yl)amino]-2-oxo-1-(propan-2-yl)-1,2-dihydroquinolin-3-yl}oxy)-N-methylacetamide]
Body weight loss [1]: No significant body weight loss
Tumor lysate BCL6 protein level (BCL6 protein [2]): dose-dependent degradation of BCL6 protein
Tumor lysate BCL6 protein level (BCL6 protein [3]): dose-dependent degradation of BCL6 protein
Tumor growth (SU-DHL-2): inhibits the tumor growth
Change in mean tumor volume (LY2214): tumor regression
Tumor growth (OCI-Ly7): inhibits the tumor growth
Change in mean tumor volume (LY12962): tumor regressions
